Literature values as cited in patent US20070231316A1, “Treatment of Cognitive Dysfunction in Lupus” (priority 2003, published 2007).

What was measured:
[1] = NP-SLE patients, after treatment
[2] = in vivo

Molecule | GFAP level in CSF [1] | NFL level in CSF [1] | effect on blood-brain barrier [2]
O=P1(N(CCCl)CCCl)NCCCO1 (stereo not drawn) [cyclophosphamide] | marked decline | marked decline | 
lipopolysaccharide [LPS] |  |  | temporary opening of the blood-brain barrier
